These results are taken from patent US11944627B2, “Methods for treating hematological malignancies and Ewing's sarcoma” (KURA ONCOLOGY, INC., priority 2017, dated 2024).

Each structure is given as a SMILES string.

One assay concerns the target T1, menin-MLL interaction (Homo sapiens, UniProt O00255).
T1 sequence (O00255 1-610): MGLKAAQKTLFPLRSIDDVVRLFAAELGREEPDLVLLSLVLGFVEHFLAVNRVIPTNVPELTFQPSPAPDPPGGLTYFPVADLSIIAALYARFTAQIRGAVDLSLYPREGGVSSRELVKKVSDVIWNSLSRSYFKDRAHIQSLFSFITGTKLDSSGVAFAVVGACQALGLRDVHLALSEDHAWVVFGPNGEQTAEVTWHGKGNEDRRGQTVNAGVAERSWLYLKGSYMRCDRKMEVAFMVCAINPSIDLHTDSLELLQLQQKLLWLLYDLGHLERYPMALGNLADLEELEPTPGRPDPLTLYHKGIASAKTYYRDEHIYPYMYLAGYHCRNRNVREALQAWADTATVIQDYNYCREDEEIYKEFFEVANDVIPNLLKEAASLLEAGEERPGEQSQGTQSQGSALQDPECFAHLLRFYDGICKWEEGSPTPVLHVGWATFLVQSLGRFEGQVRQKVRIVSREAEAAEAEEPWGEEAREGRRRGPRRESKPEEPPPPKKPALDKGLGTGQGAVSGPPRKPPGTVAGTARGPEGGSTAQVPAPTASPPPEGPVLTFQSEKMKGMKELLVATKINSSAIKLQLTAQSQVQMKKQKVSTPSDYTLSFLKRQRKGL
Nature of the assay: Fluorescence polarization (FP) competition assay. It counts as binding. The conditions noted are these: read-out: Menin MLL 4-43 IC50.
Turning to `Cc1c(CN2CCC(Nc3ncnc4sc(CC(F)(F)F)cc34)CC2)ccc2c1cc(C#N)n2CCN1CCC2(CC1)CCN(S(C)(=O)=O)C2` [Compound I-52], the IC50 lay within 250 to 1000 nM.

For a further assay, the system named is MLL-AF9 BMC. Nature of the assay: Cell proliferation assay, MLL-AF9 bone marrow cells. As to conditions: Mus musculus. Type of assay: cell-based, murine. On the procedure: The ability of a compound of the present disclosure to inhibit the growth of selected cells was tested using a cell viability assay, such as the Promega CellTiter-Glo® Luminescent Cell Viability Assay (Promega Technical Bulletin, 2015, “CellTiter-Glo® Luminescent Cell Viability Assay”: 1-15, herein incorporated by reference in its entirety) or MTT cell proliferation assay (ATCC® 30-1010K) or cell counting. Compounds of the present disclosure can be tested in both acute myeloid leukemia cell lines or Ewing's sarcoma cell lines and control cell lines without the genetic abnormality or mutation being investigated (e.g., K562, REH, U937, KG-1, and/or HL-60). Selected cells can include, but are not limited to, cells such as human leukemia cell, acute myeloid leukemia cell, Ewing's sarcoma cell (e.g., SK-NEP-1, EW5, EW8, TC-71, TC-106, CHLA258, CHLA-9, CHLA-10, SK-ES-1, Hs 822.T, A-673, A-4573, Hs 863.T, RD-ES, CHLA-25, CHLA-32, CHLA-99, COG-E-352, TC-32, SK-N-MC), VCaP, LNCaP, 22RV1, DU145, LNCaP-AR, MV4;11, KOPN-8, ML-2, MOLM-13, RS4;11, SEM, bone marrow cells (BMCs), myeloblast cell, lymphoblast cell, NUP98 gene fusion cell (e.g., NUP98-PHF23 cell), NUP98-PHF23 (NP23) myeloblast cell (e.g., 961C), NUP98-PHF23 (NP23) lymphoblast cell (e.g., 748T, 106A), cell with an NPM1 mutation (e.g., OCI-AML3), cell without an NPM1 mutation, cell with a DNMT3A mutation (e.g., OCI-AML3, OCI-AML2, SET2), cell without a DNMT3A mutation, cell with a FLT3 mutation, cell without a FLT3 mutation, cell with an IDH1 mutation, cell without an IDH1 mutation, cell with an IDH2 mutation, cell without an IDH2 mutation, cell with a mixed lineage leukemia (MLL) gene amplification (e.g., UoC-M1, 2L1), cell without a mixed lineage leukemia (MLL) gene amplification, MLL-AF9, MLL-AF4, MLL-ENL, HM-2, E2A-HLF, REH, U937, HL-60, NB4, K562, KG-1, and OCI-AML2 cells. Cells were plated at relevant concentrations, for example about 1×10^5-2×10^5 cells per well in a 96-well plate. A compound of the present disclosure was added at a concentration up to about 2 μM with seven or eight, 2-fold serial dilutions for each compound. Cells were incubated at 37° C. for a period of time, for example, 72 hours, then cells in the control wells were counted. Media was changed to restore viable cell numbers to the original concentration, and compounds were re-supplied. Proliferation was measured about 72 hours later or about 96 hours later using Promega CellTiter-Glo® reagents or MTT reagents, as per kit instructions.
`Cc1c(CN2CCC(Nc3ncnc4sc(CC(F)(F)F)cc34)CC2)ccc2c1cc(C#N)n2C[C@@H](C)N1CCN(S(C)(=O)=O)CC1` [Compound I-9] yielded a GI50 of 250 to 1000 nM. On the same count and under the same terms, the result for `Cc1c(CN2CCC(Nc3ncnc4sc(CC(F)(F)F)cc34)CC2)ccc2c1cc(C#N)n2C[C@H](C)N1CCN(S(C)(=O)=O)CC1` [Compound I-10] reads 10 to 50 nM; that for `Cc1c(CN2CCC(Nc3ncnc4sc(CC(F)(F)F)cc34)CC2)ccc2c1cc(C#N)n2CC(C)N1CCN(S(C)(=O)=O)C(C(N)=O)C1` (stereo not shown) [Compound I-80], 10 to 50 nM; that for `CNS(=O)(=O)N1CCN([C@@H](C)Cn2c(C#N)cc3c(C)c(CN4CCC(Nc5nc(N)nc6sc(CC(F)(F)F)cc56)CC4)ccc32)CC1` [Compound I-132], < 10 nM. Still for that read-out and setting: the same measure for `Cc1c(CN2CCC(Nc3nc(N)nc4sc(CC(F)(F)F)cc34)CC2)ccc2c1cc(C#N)n2C[C@H](C)N1CCN(S(C)(=O)=O)CC1` [Compound I-135]: < 10 nM; for `Cc1nc(NC2CCN(Cc3ccc4c(cc(C#N)n4C[C@H](C)N4CCN(S(C)(=O)=O)CC4)c3C)CC2)c2cc(CC(F)(F)F)sc2n1` [Compound I-138]: 10 to 50 nM. In the case of `CNS(=O)(=O)N1CCN([C@@H](C)Cn2c(C#N)cc3c(C)c(CN4CCC(Nc5nc(C)nc6sc(CC(F)(F)F)cc56)CC4)ccc32)CC1` [Compound I-139], the GI50 was in the range of 10 to 50 nM.

For `CNc1nc(NC2CCN(Cc3ccc4c(cc(C#N)n4C[C@H](C)N4CCN(S(C)(=O)=O)CC4)c3C)CC2)c2cc(CC(F)(F)F)sc2n1` [Compound I-151], the GI50 was < 10 nM. The same measure, in the same setting: the result for `Cc1c(CN2CCC(Nc3ncnc4sc(CC(F)(F)F)cc34)CC2)ccc2c1cc(C#N)n2C[C@H](C)N1CCN(S(C)(=O)=O)[C@H](C(N)=O)C1` [Compound I-163] reads < 10 nM. On to `Cc1nc(NC2CCN(Cc3ccc4c(cc(C#N)n4C[C@H](C)N4CCC(S(C)(=O)=O)CC4)c3C)CC2)c2cc(CC(F)(F)F)sc2n1` [Compound I-165], for which the GI50 was < 10 nM. Still for that read-out and setting: the same measure for `CCc1nc(NC2CCN(Cc3ccc4c(cc(C#N)n4C[C@H](C)N4CCN(S(C)(=O)=O)CC4)c3C)CC2)c2cc(CC(F)(F)F)sc2n1` [Compound I-171]: 10 to 50 nM. Same read-out and setting: the result for `C[C@@H](Cn1c(C#N)cc2cc(CN3CCC(Nc4nc(N)nc5sc(CC(F)(F)F)cc45)CC3)c(O)cc21)N1CCN(S(C)(=O)=O)CC1` [Compound I-172] reads < 10 nM; that for `CCNc1nc(NC2CCN(Cc3ccc4c(cc(C#N)n4C[C@H](C)N4CCN(S(C)(=O)=O)CC4)c3C)CC2)c2cc(CC(F)(F)F)sc2n1` [Compound I-174], 10 to 50 nM; that for `Cc1c(CN2CCC(Nc3nc(N)nc4sc(CC(F)(F)F)cc34)CC2)ccc2c1cc(C#N)n2C[C@H](C)N1CCN(CC(N)=O)CC1` [Compound I-175], 10 to 50 nM. Still for that read-out and setting: the same measure for `CNC(=O)CN1CCN([C@@H](C)Cn2c(C#N)cc3c(C)c(CN4CCC(Nc5nc(N)nc6sc(CC(F)(F)F)cc56)CC4)ccc32)CC1` [Compound I-176]: 10 to 50 nM; for `CNS(=O)(=O)N1CCN([C@@H](C)Cn2c(C#N)cc3cc(CN4CCC(Nc5nc(N)nc6sc(CC(F)(F)F)cc56)CC4)c(O)cc32)CC1` [Compound I-177]: < 10 nM; for `Cc1c(CN2CCC(Nc3nc(N)nc4sc(CC(F)(F)F)cc34)CC2)ccc2c1cc(C#N)n2C[C@H](C)N1CCN(CC(=O)N(C)C)CC1` [Compound I-181]: 10 to 50 nM. `COc1nc(NC2CCN(Cc3ccc4c(cc(C#N)n4C[C@H](C)N4CCN(S(C)(=O)=O)CC4)c3C)CC2)c2cc(CC(F)(F)F)sc2n1` [Compound I-183]: the GI50 is < 10 nM. On the same count and under the same terms, the same measure for `CNc1nc(NC2CCN(Cc3ccc4c(cc(C#N)n4C[C@H](C)N4CCC(C)(C#N)CC4)c3C)CC2)c2cc(CC(F)(F)F)sc2n1` [Compound I-199]: < 10 nM. Turning to `CNc1nc(NC2CCN(Cc3ccc4c(cc(C#N)n4C[C@H](C)N4CCS(=O)(=O)CC4)c3C)CC2)c2cc(CC(F)(F)F)sc2n1` [Compound I-203], the GI50 was < 10 nM. On the same count and under the same terms, the result for `CNS(=O)(=O)N1CCN([C@@H](C)Cn2c(C#N)cc3c(C)c(CN4CCC(Nc5nc(OC)nc6sc(CC(F)(F)F)cc56)CC4)ccc32)CC1` [Compound I-205] reads < 10 nM. On the same count and under the same terms, the result for `CNc1nc(NC2CCN(Cc3ccc4c(cc(C#N)n4C[C@H](C)N4CCC(C)(O)CC4)c3C)CC2)c2cc(CC(F)(F)F)sc2n1` [Compound I-207] reads < 10 nM; that for `CNS(=O)(=O)C1CCN([C@@H](C)Cn2c(C#N)cc3c(C)c(CN4CCC(Nc5nc(OC)nc6sc(CC(F)(F)F)cc56)CC4)ccc32)CC1` [Compound I-214], < 10 nM; that for `CNC(=O)C1CN([C@@H](C)Cn2c(C#N)cc3c(C)c(CN4CCC(Nc5nc(NC)nc6sc(CC(F)(F)F)cc56)CC4)ccc32)CCO1` (stereo partly shown) [Compound I-217], 10 to 50 nM.

The next assay deals with LXFE 2734 cells. Put plainly: Serial bleed FACS analysis and survival study in LXFE 2734 mouse model. The conditions noted are these: LXFE 2734 model, compared to vehicle; FIG. 11.
Description: Human leukemia cells were detected by FACS biweekly starting from week 2 post-cell inoculation.
Consider `CC(C)(C)c1cc(NC(=O)Nc2ccc(-c3cn4c(n3)sc3cc(OCCN5CCOCC5)ccc34)cc2)no1` [quizartinib], for which the overall survival result is given as “prolonged survival”.

Still in this assay, the particulars now being: LXFE 2734 model, quizartinib ~3 mg/kg qd.
As to `CC(C)(C)c1cc(NC(=O)Nc2ccc(-c3cn4c(n3)sc3cc(OCCN5CCOCC5)ccc34)cc2)no1` [quizartinib], the surviving animals result is recorded as “no quizartinib treated animals surviving after 77 days”.

The assay is the same for the next values; noted with them: LXFE 2734 model; Compound A ~150 mg/kg p.o. qd, quizartinib ~3 mg/kg qd; FIG. 10.
`CC(C)(C)c1cc(NC(=O)Nc2ccc(-c3cn4c(n3)sc3cc(OCCN5CCOCC5)ccc34)cc2)no1` [quizartinib]: the “leukemic progression (CD45+/CD33+ blasts, FACS)” value is “evidence of leukemia relapse”.

For a further assay, the system named is AM7577 cells. Put plainly: Serial bleed FACS analysis and survival study in AM7577 mouse model (Example 30). The conditions noted are these: Compound A ~100 or ~150 mg/kg, quizartinib ~3 mg/kg, combination ~100 + ~2 mg/kg, p.o. qd, FIG. 8.
On to `CC(C)(C)c1cc(NC(=O)Nc2ccc(-c3cn4c(n3)sc3cc(OCCN5CCOCC5)ccc34)cc2)no1` [quizartinib], for which the “leukemic progression (CD45+/CD38+ blasts, serial bleed FACS)” value was “evidence of leukemia breakout after 63 days”.

The same assay, now with this note: compared to vehicle, FIG. 9A.
As to `CC(C)(C)c1cc(NC(=O)Nc2ccc(-c3cn4c(n3)sc3cc(OCCN5CCOCC5)ccc34)cc2)no1` [quizartinib], the overall survival entry is recorded as “prolonged survival”.

The assay is the same for the next values; noted with them: quizartinib only treatment.
As for `CC(C)(C)c1cc(NC(=O)Nc2ccc(-c3cn4c(n3)sc3cc(OCCN5CCOCC5)ccc34)cc2)no1` [quizartinib], the surviving animals result is recorded as “no surviving animals after 84 days”.
